The record followed here is article PMC7734336, “Riproximin Exhibits Diversity in Sugar Binding, and Modulates some Metastasis-Related Proteins with Lectin like Properties in Pancreatic Ductal Adenocarcinoma” (Frontiers in Pharmacology, 2020).

For experiment [1], the target named is T1, Riproximin (Rpx) (Ximenia americana, UniProt Q2PA54). The experiment is described as follows: waterLOGSY NMR. The conditions noted are these: 298 K; pyranose anomers observed separately in one sample. It is filed as binding.
T1 sequence (Q2PA54 53-325 limits assumed): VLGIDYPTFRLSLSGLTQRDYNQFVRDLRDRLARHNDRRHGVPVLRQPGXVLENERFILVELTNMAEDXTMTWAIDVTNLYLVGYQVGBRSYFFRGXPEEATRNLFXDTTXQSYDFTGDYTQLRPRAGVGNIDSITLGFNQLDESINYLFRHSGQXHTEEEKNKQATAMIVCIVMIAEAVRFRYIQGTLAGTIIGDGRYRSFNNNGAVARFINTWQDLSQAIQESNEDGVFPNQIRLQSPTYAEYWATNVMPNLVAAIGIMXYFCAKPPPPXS
T1 sequence (Q2PA54 334-601 limits assumed): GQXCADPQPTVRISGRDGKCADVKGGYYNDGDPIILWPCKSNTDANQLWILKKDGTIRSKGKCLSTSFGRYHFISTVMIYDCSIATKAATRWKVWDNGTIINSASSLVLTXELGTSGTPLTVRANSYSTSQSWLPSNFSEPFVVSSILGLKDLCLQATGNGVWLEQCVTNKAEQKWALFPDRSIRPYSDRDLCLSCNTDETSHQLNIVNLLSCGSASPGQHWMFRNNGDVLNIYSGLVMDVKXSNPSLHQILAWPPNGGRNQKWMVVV
Experiment [2] addresses T1, Riproximin (Rpx). The experiment is described as follows: 1H NMR line broadening and waterLOGSY. It counts as binding. The following applies: 298 K; pyranose anomers observed separately in one sample.

Take `C[C@@H]1OC(O)[C@H](O)[C@H](O)[C@H]1O` (mixture of isomers) [L-rhamnose]: at Riproximin (Rpx) [1], the “waterLOGSY NMR” value is “water-LOGSY spectrum confirmed nevertheless the very weak binding of both, the α- and β-anomers of l-rhamnose”.
`OC[C@H]1OC(O)[C@H](O)[C@@H](O)[C@H]1O` (mixture of isomers) [D-galactose]: on Riproximin (Rpx) [2], the “1H NMR line broadening and waterLOGSY” value was “The affinities of both D-galactose and L-fucose for Rpx were moderate as evident by clear”.
Take `C[C@@H]1OC(O)[C@@H](O)[C@H](O)[C@@H]1O` (mixture of isomers) [L-fucose]: the “1H NMR line broadening and waterLOGSY” value at Riproximin (Rpx) [2] is “The methyl doublet signals of L-fucose show clear line broadening due to binding to Rpx”.
